{
  "source": "patent US20240180838A1",
  "about": "“NANOPARTICLE (NP) COMPOSITIONS AND METHODS OF USE THEREOF” (RUTGERS, THE STATE UNIVERSITY OF NEW JERSEY, priority 2022, published 2024)",
  "key": {"S. aureus": {"test_system": "S. aureus", "settings": "as reported in the literature; cited from earlier work"}, "[1]": {"test": "Thermogravimetric analysis, thermal stability", "type": "physicochemical", "settings": "TG curve", "protocol": "The amount of RFX loaded in DAMO/SBA is carefully determined by comparing the thermogravimetric (TG) traces of RFX/SBA and its parent material (DAMO-SBA), after normalizing the weight losses of the two curves at 100° C. (i.e., the temperature at which physisorbed water should be completely evaporated) (FIGS. 4A-4B). The comparison is done at 750° C., after most organic groups are removed from the samples. […] The decomposition profiles for pure RFX and copper(II) acetate, which is the salt used to immobilize Cu(II) ions into the material. As expected, RFX completely decomposes after 500° C. as it comprises mostly organic groups."}},
  "data": [
    {"smiles": "CC[C@H]1OC(=O)[C@H](C)[C@@H](O[C@H]2C[C@@](C)(OC)[C@@H](O)[C@H](C)O2)[C@H](C)[C@@H](O[C@@H]2O[C@H](C)C[C@H](N(C)C)[C@H]2O)[C@](C)(O)C[C@@H](C)C(=O)[C@H](C)[C@@H](O)[C@]1(C)O", "note": "[ERM, erythromycin]", "values": [
      {"measurement": "Minimum inhibitory concentrations (MICs)", "setting": "S. aureus", "result": 32, "unit": "µg/mL"}
    ]},
    {"smiles": "O=C(Nc1ccc(Oc2ccc(Cl)cc2)c(Cl)c1)c1cc(I)cc(I)c1O", "note": "[RFX, N-[3-Chloro-4-(4-chlorophenoxy)phenyl]-2-hydroxy-3,5-diiodobenzamide]", "values": [
      {"measurement": "onset temperature of degradation", "setting": "[1]", "result": 200, "unit": "°C"}
    ]},
    {"smiles": "COc1cc(Cc2cnc(N)nc2N)cc(OC)c1OC", "note": "[TRM, trimethoprim]", "values": [
      {"measurement": "Minimum inhibitory concentrations (MICs)", "setting": "S. aureus", "result": 0.19, "unit": "µg/mL"}
    ]}
  ]
}
